{"source": "patent US12582621B2", "about": "“Compositions and methods for delivering pharmaceutical agents” (Arizona Board of Regents on Behalf of the University of …, priority 2020, dated 2026)", "system": "radiation-induced oral mucosistis", "experiment": "Fractionated radiation-induced oral mucositis in mice, topical suramin", "assay_type": "in vivo, C57BL/6J mice", "settings": "8 Gy on 5 consecutive days, topical suramin 50 mg/ml solution by intraoral swab twice daily, assessed day 7", "method": "The head and neck region of six-week-old male and female C57BL/6J mice (4-5 mice/group/sex) were exposed to collimated fractionated radiation (8 Gy on 5 consecutive days). Topically applied suramin (50 mg/ml solution) was applied on day 1 of radiation by intraoral swab and twice daily throughout the experimental period. On day 7, all mice were euthanized and tongues were assessed for development and extent of oral mucositis ulceration on the dorsal surface of the tongue using 1% toluidine blue. Epithelial erosion and ulceration were visible as a deep blue color and ulceration area was measured using NIH Image J software. Histopathological grading (0-4 scale) using an established scale was used to assess OM staging and epithelial thinning.", "data": [{"smiles": "Cc1ccc(C(=O)Nc2ccc(S(=O)(=O)O)c3cc(S(=O)(=O)O)cc(S(=O)(=O)O)c23)cc1NC(=O)c1cccc(NC(=O)Nc2cccc(C(=O)Nc3cc(C(=O)Nc4ccc(S(=O)(=O)O)c5cc(S(=O)(=O)O)cc(S(=O)(=O)O)c45)ccc3C)c2)c1", "note": "[suramin, Suramin]", "values": [{"measurement": "effect on radiation-induced oral mucositis", "value": "diminishes radiation-induced oral mucosistis"}]}]}
